Assay results reported in US20240262856A1, “NOVEL SPINOSYN COMPOUNDS” (priority 2021, published 2024).
Values after ≈ are worked out from the molar mass of the structure shown. Read-outs that look alike come from different tables or passages of the source.

What was measured:
[1] = test system: honey bees (Apis melifera carnica, Pollman 1879); assay: Single dose acute oral toxicity test on adult worker honey bees; assay type: in vivo
Description: Toxicity of the compounds of this invention towards honey bees (Apis melifera carnica, Pollman 1879) was assessed in comparison with commercially available samples of spinosad (LGC (Dr. Ehrenstorfer); Product code: DRE-C16972830) and the naturally produced compound butenyl spinosyn alpha 1. Solutions of spinosyn compounds were prepared in 100 mM ammonium acetate, pH=5, and later diluted in 50% (500 g/L) sucrose solution in water to final concentrations. Two final concentrations were used for each compound, 7.76 μmol/L and 15.53 μmol/L.
Single dose acute oral toxicity tests were conducted on adult worker bees according to previously described standard methods (Medrzycki at el., (2013)). Each compound and condition were tested in two parallels. Briefly, each parallel experiment consisted of 5 cages with 20 honey bees per cage. […] After uptake of the solutions honey bees were supplied with standard 50% sucrose solution and observed at 24 h and 48 h and the number of dead and live bees was estimated. Ammonium acetate solution with pH 5 was used as the negative control.

Kinetic solubility assay = assay type: physicochemical; details: 24 hours at room temperature (25±2° C.)
Description: Solubility of the compounds of the invention was assessed using kinetic solubility assay and compared to solubility of butenyl spinosyn. Stock solutions of spinosyn compounds were prepared in DMSO at 10 mM concentration). 10 uL of the stock solutions were added into 490 of in K.S. 5.4 buffer of pH 5.4 (80 mM phosphoric acid, acetic acid, boric acid buffer, adjusted the pH to pH 5.4 with 1 N HCl and 1N NaOH) or K.S. 7.4 buffer with pH of 7.4 (80 mM phosphoric acid, acetic acid, boric acid buffer, adjusted the pH to pH 7.4 with 1 N HCl and 1N NaOH). The solutions were incubated with shaking at room temperature (25±2° C.) for 24 hours. 200 uL of each solution were then transferred into a new MultiScreen filter plate (Membrane of polycarbonate) and filtered by millipore vacuum manifold, and the filtrate was collected. The concentrations of tested compounds in the filtered samples were analyzed by HPLC analysis calibrated by a standard curve generated by injection of 3 standard solutions of the relevant compound with concentrations of 1, 20, 200 μM.

[2] = UV-stability of 5 mM solutions in acetonitrile, remaining compound by HPLC; assay type: physicochemical; details: for share of remaining compound 0 h: start value for both aliquots; for Purity changing: 0 h to 10 h
Description: Synthesized spinosyn compounds were used to prepare 5 mM solutions in acetonitrile. The solution was divided in 2 aliquots and one aliquot was exposed to UV light at 254 nm and the other aliquot was incubated in the same conditions without UV light exposure. Quantities of remaining starting compounds were determined by HPLC after 0 h, 1 h, 5 h and 10 h.

[3] = test system: Ostrinia nubilalis larvae; assay: Insecticide efficacy on corn leaves dipped in compound solution and infested with L1 larvae (Henderson-Tilton method); assay type: in vivo; details: for % Efficacy 3 days: 3 days post infestation; for % Efficacy 6 days: 6 days post infestation; for Emax: Ostrinia nubilalis; for insecticidal activity on Ostrinia nubilalis larvae (in words): compared with Spinosad / spinetoram
Description: Insecticide activities of the compounds of this invention were assessed in comparison with commercially available samples of spinosad (LGC (Dr. Ehrenstorfer); Product code: DRE-C16972830) and spinetoram (LGC (Dr. Ehrenstorfer); Product code: DRE-C16972770) Solutions of spinosyn compounds were prepared by adding 0.05% Tween 80, lowering pH to 5.95 and sonicating. Two concentrations of each compound were used, 0.1 μg/mL and 0.3 μg/mL, with each condition tested in four parallels.
Freshly collected corn leaves were dipped into the prepared solutions. After dipping leaves were left to dry at room temperature for 1 hour. Each dry leaf was then infested with 4 larvae (development stage L1), and the experimental device was incubated at 21° C.-23° C. for 24 h in order to optimize insect development. At two timings post infestation (3 days and 6 days), the insecticide efficacy is evaluated from the number of living larvae using the Henderson-Tilton method. Untreated control was integrated for normalization and validation of larvae health.

[4] = test system: honey bees (Apis melifera carnica, Pollman 1879); details: previously established oral LD50 for honey bee; cited from earlier work
[5] = 0.078 nmol/bee oral single dose, 24 h after application
[6] = 0.078 nmol/bee oral single dose, 48 h after application
[7] = 0.155 nmol/bee oral single dose, 24 h after application
[8] = 0.155 nmol/bee oral single dose, 48 h after application
[9] = 25 °C, aqueous buffer, kinetic from dmso stock, K.S. 5.4 buffer pH 5.4, dose conc 200 μM, read-out: Kinetic Solubility pH = 5.4
[10] = 25 °C, aqueous buffer, kinetic from dmso stock, K.S. 7.4 buffer pH 7.4, dose conc 200 μM, read-out: Kinetic Solubility pH = 7.4
[11] = 72 h, read-out: % Efficacy 3 days, dose 0.1 μg a.i./ml, 3 days post infestation
[12] = 72 h, read-out: % Efficacy 3 days, dose 0.3 μg a.i./ml, 3 days post infestation
[13] = 144 h, read-out: % Efficacy 6 days, dose 0.1 μg a.i./ml, 6 days post infestation
[14] = 144 h, read-out: % Efficacy 6 days, dose 0.3 μg a.i./ml, 6 days post infestation

Row | Compound | % of surviving honey bees [1, 5] | % of surviving honey bees [1, 6] | % of surviving honey bees [1, 7] | % of surviving honey bees [1, 8] | share of remaining compound 0 h [2] | Purity changing ([2]; under UV light at 254 nm) | share of remaining compound 1 h ([2]; under UV light at 254 nm) | share of remaining compound 5 h ([2]; under UV light at 254 nm) | share of remaining compound 10 h ([2]; under UV light at 254 nm) | Purity changing ([2]; without UV) | share of remaining compound 1 h ([2]; without UV) | share of remaining compound 5 h ([2]; without UV) | share of remaining compound 10 h ([2]; without UV) | % Efficacy 3 days ([3]; dose 0.1 μg a.i./ml) | % Efficacy 6 days ([3]; dose 0.1 μg a.i./ml) | % Efficacy 3 days ([3]; dose 0.3 μg a.i./ml) | % Efficacy 6 days ([3]; dose 0.3 μg a.i./ml) | solubility kinetic at 24 h (Kinetic solubility assay; [9]) | solubility kinetic at 24 h (Kinetic solubility assay; [10]) | other results
1 | CCC=CC1CCCC(OC2CCC(N(C)C)C(C)O2)C(C)C(=O)C2=CC3C(C=CC4CC(OC5OC(C)C(OC)C(OC)C5OC)CC43)C2CC(=O)O1 (stereo not drawn) [Butenyl spinosyn, butenyl spinosyn α1, reference compound] | 57% | 37% | 32% | 6% | 90.0% | −30.4% | 88.6% | 70.9% | 59.6% | −0.6% | 90.6% | 90.7% | 89.4% | 33% | 56% | 79% | 100% | – | – | toxicity to honey bees in acute oral toxicity test (in words) ([1]; compared to the derivatives provided by this invention): higher toxicity to honey bees; solubility kinetic at 24 h (Kinetic solubility assay; K.S. 5.4 buffer pH 5.4, dose conc 200 μM, read-out: Kinetic Solubility pH = 5.4): 183.17 µM (≈ 139 µg/mL); solubility kinetic at 24 h (Kinetic solubility assay; K.S. 7.4 buffer pH 7.4, dose conc 200 μM, read-out: Kinetic Solubility pH = 7.4): 3.52 µM (≈ 2.67 µg/mL)
2 | CC/C=C/[C@H]1CCC[C@H](OC2CCC(N(C)C)C(C)O2)[C@@H](C)C(=O)C2=C[C@@H]3[C@@H](C=C[C@]4(O)C[C@@H](OC5OC(C)C(OC)C(OC)C5OC)C[C@@H]34)[C@@H]2CC(=O)O1 (stereo partly drawn) [Compound A1, 7-hydroxy butenyl spinosyn α1] | – | – | – | – | 90.7% | −38.5% | 86.6% | 71.3% | 52.2% | +0.2% | 90.7% | 90.8% | 90.9% | – | – | – | – | 192 µM (≈ 149 µg/mL) | 187 µM (≈ 144 µg/mL) | Emax [3, 11]: 2%; Emax [3, 12]: 15%; Emax [3, 13]: 2%; Emax [3, 14]: 19%
3 | CC/C=C/[C@H]1CCC[C@H](OC2CCC(N(C)C)C(C)O2)[C@@H](C)C(=O)C2=C[C@@H]3[C@@H](C=C[C@]4(OC)C[C@@H](OC5OC(C)C(OC)C(OC)C5OC)C[C@@H]34)[C@@H]2CC(=O)O1 (stereo partly drawn) [Compound H1, 7-methoxy butenyl spinosyn α1] | – | – | – | – | 96.0% | −22.5% | 95.6% | 87.5% | 73.5% | +0.7% | 96.5% | 96.9% | 96.7% | – | – | – | – | 183 µM (≈ 144 µg/mL) | 77.1 µM (≈ 60.8 µg/mL) | Emax [3, 11]: 27%; Emax [3, 12]: 58%; Emax [3, 13]: 89%; Emax [3, 14]: 100%; insecticidal activity on Ostrinia nubilalis larvae (in words) [3]: extremely potent insecticidal activity
4 | CC[C@H]1CCC[C@H](OC2CCC(N(C)C)C(C)O2)[C@@H](C)C(=O)C2=C[C@@H]3[C@@H](C=C[C@]4(OC)C[C@@H](OC5OC(C)C(OC)C(OC)C5OC)C[C@@H]34)[C@@H]2CC(=O)O1 (stereo partly drawn) [Compound H1a] | – | – | – | – | – | – | – | – | – | – | – | – | – | 15% | 41% | 64% | 93% | – | – | insecticidal activity on Ostrinia nubilalis larvae (in words) [3]: lower insecticidal activity
5 | CC/C=C/[C@H]1CCC[C@H](OC2CCC(N(C)C)C(C)O2)[C@@H](C)C(=O)C2=C[C@@H]3[C@@H](C=C[C@]4(OCC)C[C@@H](OC5OC(C)C(OC)C(OC)C5OC)C[C@@H]34)[C@@H]2CC(=O)O1 (stereo partly drawn) [Compound H2, 7-ethoxy butenyl spinosyn al] | – | – | – | – | 93.2% | −53.5% | 87.6% | 67.8% | 39.7% | −0.9% | 93.6% | 93.7% | 92.3% | – | – | – | – | 166 µM (≈ 133 µg/mL) | 7.68 µM (≈ 6.16 µg/mL) | –
6 | CC/C=C/[C@H]1CCC[C@H](OC2CCC([N+](C)(C)COC(=O)C(C)(C)C)C(C)O2)[C@@H](C)C(=O)C2=C[C@@H]3[C@@H](C=CC4(OC)C[C@@H](OC5OC(C)C(OC)C(OC)C5OC)C[C@@H]34)[C@@H]2CC(=O)O1 (stereo partly drawn) [Compound J1A-H1] | 98% | 73% | 86% | 26% | – | – | – | – | – | – | – | – | – | – | – | – | – | – | – | –
7 | CC/C=C/[C@H]1CCC[C@H](OC2CCC([N+](C)(C)COC(=O)OC(C)C)C(C)O2)[C@@H](C)C(=O)C2=C[C@@H]3[C@@H](C=CC4(OC)C[C@@H](OC5OC(C)C(OC)C(OC)C5OC)C[C@@H]34)[C@@H]2CC(=O)O1 (stereo partly drawn) [Compound J7-H1] | 87% | 69% | 78% | 30% | – | – | – | – | – | – | – | – | – | – | – | – | – | – | – | –
8 | spinetoram [Spinoteram, reference compound] | – | – | – | – | – | – | – | – | – | – | – | – | – | 58% | 81% | 85% | 96% | – | – | –
9 | spinosad [SPN, reference compound] | – | – | – | – | – | – | – | – | – | – | – | – | – | 25% | 46% | 63% | 100% | – | – | LD50 [4]: 0.057 μg/bee
